Measurements reported in publication PMC8876231, “Analogues of Natural Chalcones as Efficient Inhibitors of AKR1C3” (Metabolites, 2022).
Several values for one entry are separate records, joined by “and”; a condition that tells them apart may be missing. Equal entries are not always repeated.

What was measured:
Assay type in all cases: biochemical
Settings in all cases: 10 µM compound; mean ± SD
AKR1C1 = target: T1, AKR1C1 (Homo sapiens, UniProt Q04828); experiment: AKR1C1 inhibition assay (progesterone to 20α-hydroxyprogesterone)
T1 construct: Myc (N); expressed in transfected cells; host or cells: HEK293
T1 sequence (Q04828 1-323): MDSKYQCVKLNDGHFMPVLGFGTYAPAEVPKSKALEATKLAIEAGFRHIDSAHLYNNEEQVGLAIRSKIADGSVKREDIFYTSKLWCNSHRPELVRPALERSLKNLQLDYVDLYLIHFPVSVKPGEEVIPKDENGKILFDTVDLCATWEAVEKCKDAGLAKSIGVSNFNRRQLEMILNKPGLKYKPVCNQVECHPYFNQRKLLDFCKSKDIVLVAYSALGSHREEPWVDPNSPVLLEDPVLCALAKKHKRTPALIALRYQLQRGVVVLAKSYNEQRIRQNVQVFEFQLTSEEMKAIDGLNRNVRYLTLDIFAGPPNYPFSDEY
Source text: (§1) For enzymatic assays and inhibitor testing, all enzymes were cloned into bacterial or mammalian expression vectors. AKR1C3 and the human hydroxysteroid dehydrogenases HSD17B1, HSD17B2, HSD17B4 (SDR domain), HSD17B7, and HSD17B10 were cloned into a pGEX vector as described in [71, 72]. The coding sequences for AKR1C1, AKR1C2, and AKR1C4 were cloned by Gateway technology into the pcDNA3-N-MycDest vector according to the manufacturer’s instructions (Life Technologies, Carlsbad, CA, USA). The p11 plasmid coding for HSD17B14 (S205 variant) was a gift from Udo Opperman SGC Oxford, UK. For assays with HSD17B3, HEK293 cells stably expressing HSD17B3 were used. Enzymes were expressed in E. coli BL21 DE3 or E. coli BL21 DE3 Codon Plus RP (Stratagene, San Diego, CA, USA) or in HEK293 cells as described in [71, 72, 73]. Bacterial and cell pellets were stored at −20 °C and −80 °C, respectively, until use.
(§2) Inhibition assays were carried out as described in [71, 74]. […] For a detailed assay setup, see Supplementary Table S6. The incubation at 37 °C was stopped with 0.21 M ascorbic acid in methanol:acetic acid 99:1 (v:v) after the time needed to convert approximately 30% of the substrate in a control assay with 1% DMSO, without inhibitor candidate. Substrates and products were extracted from the reaction mixture by solid-phase extraction using C18 cartridges (Phenomenex, Aschaffenburg, Germany) and separated by RP–HPLC in a Beckman–Coulter HPLC Gold system, using the Luna 5 µm C18(2), 125 × 4.0 mm column (Phenomenex). The mobile phases used were H2O:ACN (57:43 (v:v); for assays of estrone (E1) to oestradiol (E2), E2 to E1, and ∆4-androstene-3,17-dione to testosterone conversion), H2O:ACN (49:51 (v:v); for assays of progesterone to 20α-hydroxyprogesterone conversion), and H2O:MeOH (35:65 (v:v) for assays of dihydrotestosterone (DHT) to 3α-androstanediol conversion) at a flow rate of 1 mL/min. Radioactivity was detected by online scintillation counting by using a radioactivity monitor (LB506D, Berthold Technologies, Bad Wildbad, Germany). Conversion of substrates to products was determined by integration of the peak area of the substrate and product peaks in percent. For calculation of inhibition, the conversion of control assay (assay without inhibitor) was set to 0% inhibition. All assays were run in triplicates, and mean values ± SD are reported.
(§3) Table S6: Activity assay setup […]
(§4) E1: estrone; E2: 17β-estradiol, A: Δ4-androstene-3,17-dione; T: testosterone, P: progesterone, 20αOHP: 20α-hydroxyprogesterone, DHT: dihydrotestosterone, 3α-Adiol: 3α-androstanediol, NaPi: 100 mM Na-phosphate buffer; PI: C0mplete protease inhibitor (Roche);. E.coli - Expression in E.coli BL21 DE3 Codon Plus RP except E.coli BL21 DE3 […]
(§5) application to antiparasitic and natural product synthesis. Eur J Org Chem […]
(§6) Synthesis of Xanthohumol analogues and discovery of potent thioredoxin reductase inhibitor as potential anticancer agent. J Med Chem 2015, 58,

HSD17B2 = target: T2, HSD17B2 (Homo sapiens, UniProt P37059); experiment: HSD17B2 inhibition assay (oestradiol to estrone)
T2 construct: GST (own knowledge: pGEX vectors encode N-terminal GST); made in house; host or cells: E. coli BL21 DE3 Codon Plus RP
T2 sequence (P37059 1-387): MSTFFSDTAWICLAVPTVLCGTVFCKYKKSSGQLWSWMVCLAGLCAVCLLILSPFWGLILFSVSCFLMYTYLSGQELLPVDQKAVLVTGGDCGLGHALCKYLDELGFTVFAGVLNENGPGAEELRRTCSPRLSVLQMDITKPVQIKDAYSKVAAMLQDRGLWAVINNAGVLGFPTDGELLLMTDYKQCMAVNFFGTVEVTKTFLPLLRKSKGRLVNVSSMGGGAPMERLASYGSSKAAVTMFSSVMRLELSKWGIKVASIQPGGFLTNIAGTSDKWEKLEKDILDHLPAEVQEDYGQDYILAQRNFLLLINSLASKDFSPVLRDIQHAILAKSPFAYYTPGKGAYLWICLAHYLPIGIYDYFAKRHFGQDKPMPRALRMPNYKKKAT
Source text: as §1, §2, §3, §4, §5, §6

HSD17B3 = target: T3, HSD17B3 (Homo sapiens, UniProt P37058); experiment: HSD17B3 inhibition assay (∆4-androstene-3,17-dione to testosterone, HEK293 stably expressing HSD17B3)
T3 construct: expressed in transfected cells
T3 sequence (P37058 1-310): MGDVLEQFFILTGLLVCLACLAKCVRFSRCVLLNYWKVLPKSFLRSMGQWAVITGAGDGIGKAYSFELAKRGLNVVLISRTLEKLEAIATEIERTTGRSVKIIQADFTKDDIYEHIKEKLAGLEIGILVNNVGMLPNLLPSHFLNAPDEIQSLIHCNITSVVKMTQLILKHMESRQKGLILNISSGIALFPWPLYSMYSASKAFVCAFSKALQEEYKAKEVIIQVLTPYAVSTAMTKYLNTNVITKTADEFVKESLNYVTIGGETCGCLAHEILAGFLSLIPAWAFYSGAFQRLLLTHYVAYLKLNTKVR
Source text: as §1, §2, §3, §4, §5, §6

HSD17B4 = target: T4, HSD17B4 (Homo sapiens, UniProt P51659); experiment: HSD17B4 (SDR domain) inhibition assay (oestradiol to estrone)
T4 construct: pGEX-HSD17B4 (SDR domain) in; GST (own knowledge: pGEX vectors encode N-terminal GST); made in house; host or cells: E. coli BL21 DE3 Codon Plus RP
T4 sequence (P51659 1-305 limits assumed): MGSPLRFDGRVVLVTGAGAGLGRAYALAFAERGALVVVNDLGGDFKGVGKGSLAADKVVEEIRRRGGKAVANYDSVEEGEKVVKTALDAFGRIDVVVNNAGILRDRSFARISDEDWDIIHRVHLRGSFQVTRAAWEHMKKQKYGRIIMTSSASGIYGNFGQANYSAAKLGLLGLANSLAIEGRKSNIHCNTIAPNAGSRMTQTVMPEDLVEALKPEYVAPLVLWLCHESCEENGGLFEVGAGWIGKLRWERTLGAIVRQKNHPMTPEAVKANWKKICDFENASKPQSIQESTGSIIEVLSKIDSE
Source text: as §1, §2, §3
pGEX-HSD17B4 (SDR domain) in E2 à E1 estradiol-[6,7-3H], 40 NAD 750 µM NaPi pH7.7 […]
as §4, §5, §6

Inhibition of AKR1C1 at 10 µM in % (AKR1C1)	Inhibition of HSD17B2 at 10 µM in % (HSD17B2) [%]	Inhibition of HSD17B3 at 10 µM in % (HSD17B3) [%]	Inhibition of HSD17B4 at 10 µM in % (HSD17B4) [%]	inhibition at 10 µM (AKR1C1) [%]	inhibition at 10 µM (HSD17B2) [%]	inhibition at 10 µM (HSD17B3) [%]	inhibition at 10 µM (HSD17B4) [%]	SMILES
> 75%	29.6 ± 3.7	41.8 ± 3.3	2.0 ± 2.9	–	–	–	–	COc1ccc(/C=C/C(=O)c2c(O)cc(O)cc2O)cc1 [Compound 19]
–	–	–	–	97 ± 0.5	88.8	68.6	19.6 ± 1	O=C(/C=C/c1ccc(Cl)cc1Cl)c1c(O)cc(O)cc1O [Compound 23, 2,4-dichloro-2′,4′,6′-trihydroxychalcone]
90.2 ± 0.8% and > 75%	44.2 ± 4.7	52.7 ± 6.7	3.0 ± 6.3	–	–	–	–	Cc1ccc(/C=C/C(=O)c2c(O)cc(O)cc2O)cc1 [Compound 21]
86.9 ± 1.1% and > 75%	61.0 ± 0.9	55.9 ± 4.1	8.6 ± 1.1	–	–	–	–	Cc1cccc(/C=C/C(=O)c2c(O)cc(O)cc2O)c1 [Compound 20]
96.5%	10.4 ± 1.6	24.8 ± 4.8	9.9 ± 6.1	–	–	–	–	COc1ccc(/C=C/C(=O)c2c(O)cc(O)cc2OC)cc1 [Compound 18]

SMILES	Inhibition of AKR1C1 at 10 µM in % (AKR1C1)	Inhibition of HSD17B2 at 10 µM in % (HSD17B2) [%]	Inhibition of HSD17B3 at 10 µM in % (HSD17B3) [%]	Inhibition of HSD17B4 at 10 µM in % (HSD17B4) [%]	inhibition at 10 µM (AKR1C1) [%]	inhibition at 10 µM (HSD17B2) [%]	inhibition at 10 µM (HSD17B3) [%]	inhibition at 10 µM (HSD17B4) [%]
COc1cc(O)cc(O)c1C(=O)/C=C/c1ccc(Cl)cc1Cl [Compound 25]	87.9%	12.7 ± 2.3	20.9 ± 8.0	-6.0 ± 7.5	–	–	–	–
